Experimental data as given in ChEMBL document CHEMBL1201862, “PubChem BioAssay data set” (2004).
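Five compound concentrations were applied to cells in 96-well plates for 48 hours; endpoints were derived by simple linear interpolation of the resulting dose-response curve. The concentration for 50% growth inhibition is given as GI50.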 Calls of active or inactive are those of the source. Cut-off read from the data, not from the text of the source: active = GI50 up to about 1.1 µM and inactive = higher.

What was measured:
Assay in all cases: DTP human tumour cell line panel, 48 h
SW-620 = test system: SW-620
EKVX = test system: EKVX
CAKI-1 = test system: CAKI-1
OVCAR-8 = test system: OVCAR-8
K562 = test system: K562
UACC-62 = test system: UACC-62
HCC 2998 = test system: HCC 2998
COLO 205 = test system: COLO 205
KM12 = test system: KM12
A549 = test system: A549
LOX IMVI = test system: LOX IMVI
MDA-N = test system: MDA-N
SF-295 = test system: SF-295
NCI-H23 = test system: NCI-H23
SF-268 = test system: SF-268
SK-MEL-5 = test system: SK-MEL-5
MDA-MB-435 = test system: MDA-MB-435
Malme-3M = test system: Malme-3M
M14 = test system: M14
HOP-62 = test system: HOP-62
UO-31 = test system: UO-31
HL-60 = test system: HL-60
TK-10 = test system: TK-10
MOLT-4 = test system: MOLT-4
786-0 = test system: 786-0
BT-549 = test system: BT-549
SK-MEL-2 = test system: SK-MEL-2
U-251 = test system: U-251
NCI-H226 = test system: NCI-H226
RXF 393 = test system: RXF 393
PC-3 = test system: PC-3
HT-29 = test system: HT-29
OVCAR-4 = test system: OVCAR-4
SF-539 = test system: SF-539
MCF7 = test system: MCF7
IGROV-1 = test system: IGROV-1
NCI-H460 = test system: NCI-H460
DU-145 = test system: DU-145
CCRF-CEM = test system: CCRF-CEM
SNB-19 = test system: SNB-19
NCI/ADR-RES = test system: NCI/ADR-RES
Hs-578T = test system: Hs-578T
A498 = test system: A498
SR = test system: SR
HCT-15 = test system: HCT-15
NCI-H522 = test system: NCI-H522
OVCAR-3 = test system: OVCAR-3
SN12C = test system: SN12C
RPMI-8226 = test system: RPMI-8226
MDA-MB-231 = test system: MDA-MB-231
ACHN = test system: ACHN
HCT-116 = test system: HCT-116
HOP-92 = test system: HOP-92
UACC-257 = test system: UACC-257
SNB-75 = test system: SNB-75
OVCAR-5 = test system: OVCAR-5
SK-MEL-28 = test system: SK-MEL-28

`COc1cc(C2C3=C(COC3=O)Oc3cc4c(cc32)OCO4)cc(OC)c1OC(C)=O` (stereo not given) was tested, and the GI50 (SW-620) was 20.2 nM (active), the GI50 (EKVX) was 43.5 nM (active) and the GI50 (CAKI-1) was < 10 nM (active). For the same molecule, the GI50 (OVCAR-8) was 31.6 nM (active), the GI50 (K562) was 12.2 nM (active) and the GI50 (UACC-62) was < 10 nM (active). The GI50 (HCC 2998) was 54.7 nM (active), the GI50 (COLO 205) was 27 nM (active) and the GI50 (KM12) was 13.5 nM (active). The GI50 (A549) was 46.2 nM (active), the GI50 (LOX IMVI) was 33.1 nM (active) and the GI50 (MDA-N) was < 10 nM (active). The GI50 (SF-295) was 31.6 nM (active), the GI50 (NCI-H23) was 23.3 nM (active) and the GI50 (SF-268) was 60.8 nM (active). For the same molecule, the GI50 (SK-MEL-5) was < 10 nM (active), the GI50 (MDA-MB-435) was < 10 nM (active) and the GI50 (Malme-3M) was < 21.5 nM (active). For the same molecule, the GI50 (M14) was 21.6 nM (active), the GI50 (HOP-62) was 15.7 nM (active) and the GI50 (UO-31) was < 12.4 nM (active). The GI50 (HL-60) was < 10.4 nM (active), the GI50 (TK-10) was 966 nM (active) and the GI50 (MOLT-4) was 61.2 nM (active). The GI50 (786-0) was 18.6 nM (active), the GI50 (BT-549) was 25.5 nM (active) and the GI50 (SK-MEL-2) was 37000 nM (inactive). The GI50 (U-251) was 38.8 nM (active), the GI50 (NCI-H226) was < 37.6 nM (active) and the GI50 (RXF 393) was < 10 nM (active). For the same molecule, the GI50 (PC-3) was < 10 nM (active), the GI50 (HT-29) was 26.2 nM (active) and the GI50 (OVCAR-4) was 29600 nM (inactive). The GI50 (SF-539) was < 10 nM (active), the GI50 (MCF7) was < 12 nM (active) and the GI50 (IGROV-1) was 23.9 nM (active). The GI50 (NCI-H460) was 21.2 nM (active), the GI50 (DU-145) was 38.1 nM (active) and the GI50 (CCRF-CEM) was 25.8 nM (active). The GI50 (SNB-19) was 24 nM (active), the GI50 (NCI/ADR-RES) was < 10 nM (active) and the GI50 (Hs-578T) was 10.1 nM (active). The GI50 (A498) was 11.6 nM (active), the GI50 (SR) was 40.6 nM (active) and the GI50 (HCT-15) was 22.6 nM. For the same molecule, the GI50 (NCI-H522) was < 10 nM (active), the GI50 (OVCAR-3) was 19.7 nM (active) and the GI50 (SN12C) was 619 nM (active). The GI50 (RPMI-8226) was 31.8 nM (active), the GI50 (MDA-MB-231) was 38 nM (active) and the GI50 (ACHN) was < 10 nM (active). The GI50 (HCT-116) was 20.7 nM (active).

With `Cc1ccc(S(=O)(=O)n2cnc(CC(NC(=O)C3CCC(=O)N3C(=O)OCc3ccccc3)C(=O)N3CCCC3C(=O)NN)c2)cc1` (stereo not given) the GI50 (SW-620) was > 100000 nM (inactive), the GI50 (EKVX) was > 100000 nM (inactive) and the GI50 (OVCAR-8) was > 100000 nM (inactive). The GI50 (K562) was > 100000 nM (inactive), the GI50 (HCC 2998) was > 100000 nM (inactive) and the GI50 (HOP-92) was > 100000 nM (inactive). For the same molecule, the GI50 (COLO 205) was > 100000 nM (inactive), the GI50 (KM12) was > 100000 nM (inactive) and the GI50 (A549) was > 100000 nM (inactive). The GI50 (UACC-257) was > 100000 nM (inactive), the GI50 (MDA-N) was > 100000 nM (inactive) and the GI50 (NCI-H23) was > 100000 nM (inactive). For the same molecule, the GI50 (SK-MEL-5) was > 100000 nM (inactive), the GI50 (Malme-3M) was > 100000 nM (inactive) and the GI50 (M14) was > 100000 nM (inactive). The GI50 (SNB-75) was > 100000 nM (inactive), the GI50 (HOP-62) was > 100000 nM (inactive) and the GI50 (OVCAR-5) was > 100000 nM (inactive). For the same molecule, the GI50 (UO-31) was 1020 nM (active), the GI50 (HL-60) was > 100000 nM (inactive) and the GI50 (SK-MEL-28) was > 100000 nM (inactive). For the same molecule, the GI50 (TK-10) was > 100000 nM (inactive), the GI50 (MOLT-4) was > 100000 nM (inactive) and the GI50 (786-0) was > 100000 nM (inactive). The GI50 (BT-549) was > 100000 nM (inactive), the GI50 (SK-MEL-2) was > 100000 nM (inactive) and the GI50 (U-251) was > 100000 nM (inactive). For the same molecule, the GI50 (NCI-H226) was 24800 nM (inactive), the GI50 (PC-3) was > 100000 nM (inactive) and the GI50 (HT-29) was > 100000 nM (inactive). The GI50 (MCF7) was > 100000 nM (inactive), the GI50 (IGROV-1) was > 100000 nM (inactive) and the GI50 (NCI-H460) was > 100000 nM (inactive). For the same molecule, the GI50 (SNB-19) was 48800 nM (inactive), the GI50 (Hs-578T) was > 100000 nM (inactive) and the GI50 (A498) was > 100000 nM (inactive). The GI50 (SR) was > 100000 nM (inactive), the GI50 (HCT-15) was over 100000 nM and the GI50 (SN12C) was > 100000 nM (inactive). For the same molecule, the GI50 (RPMI-8226) was > 100000 nM (inactive), the GI50 (MDA-MB-231) was > 100000 nM (inactive) and the GI50 (ACHN) was > 100000 nM (inactive). For the same molecule, the GI50 (HCT-116) was > 100000 nM (inactive).
